Data reported in PubChem BioAssay (NCI).
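Five concentrations, 48 hours, 96-well plates. The concentration for 50% growth inhibition is given as GI50. Definition used: TGI = concentration required for complete inhibition of growth.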

What was measured:
Assay in all cases: inhibition of tumour cell growth, NCI panel, 48 h
786-0 renal = system: 786-0 renal
A498 renal = system: A498 renal
A549 NSCLC = system: A549 NSCLC
ACHN renal = system: ACHN renal
CAKI-1 renal = system: CAKI-1 renal
CCRF-CEM leukemia = system: CCRF-CEM leukemia
COLO 205 colon = system: COLO 205 colon
DU-145 prostate = system: DU-145 prostate
EKVX NSCLC = system: EKVX NSCLC
HCC-2998 colon = system: HCC-2998 colon
HCT-116 colon = system: HCT-116 colon
HCT-15 colon = system: HCT-15 colon
HL-60(TB) leukemia = system: HL-60(TB) leukemia
HOP-62 NSCLC = system: HOP-62 NSCLC
HOP-92 NSCLC = system: HOP-92 NSCLC
HS 578T breast = system: HS 578T breast
HT29 colon = system: HT29 colon
IGROV1 ovarian = system: IGROV1 ovarian
K-562 leukemia = system: K-562 leukemia
KM12 colon = system: KM12 colon
LOX IMVI melanoma = system: LOX IMVI melanoma
M14 melanoma = system: M14 melanoma
MALME-3M melanoma = system: MALME-3M melanoma
MCF7 breast = system: MCF7 breast
MDA-MB-231 breast = system: MDA-MB-231 breast
MDA-MB-435 = system: MDA-MB-435
MOLT-4 leukemia = system: MOLT-4 leukemia
NCI-H226 lung = system: NCI-H226 lung
NCI-H23 lung = system: NCI-H23 lung
NCI-H460 lung = system: NCI-H460 lung
NCI-H522 lung = system: NCI-H522 lung
NCI/ADR-RES ovarian = system: NCI/ADR-RES ovarian
OVCAR-3 ovarian = system: OVCAR-3 ovarian
OVCAR-4 ovarian = system: OVCAR-4 ovarian
OVCAR-5 ovarian = system: OVCAR-5 ovarian
OVCAR-8 ovarian = system: OVCAR-8 ovarian
PC-3 prostate = system: PC-3 prostate
RPMI-8226 leukemia = system: RPMI-8226 leukemia
RXF 393 renal = system: RXF 393 renal
SF-268 CNS = system: SF-268 CNS
SF-295 CNS = system: SF-295 CNS
SF-539 CNS = system: SF-539 CNS
SK-MEL-2 melanoma = system: SK-MEL-2 melanoma
SK-MEL-28 melanoma = system: SK-MEL-28 melanoma
SK-MEL-5 melanoma = system: SK-MEL-5 melanoma
SK-OV-3 ovarian = system: SK-OV-3 ovarian
SN12C renal = system: SN12C renal
SNB-19 CNS = system: SNB-19 CNS
SNB-75 CNS = system: SNB-75 CNS
SR leukemia = system: SR leukemia
SW-620 colon = system: SW-620 colon
T-47D breast = system: T-47D breast
TK-10 renal = system: TK-10 renal
U251 CNS = system: U251 CNS
UACC-257 melanoma = system: UACC-257 melanoma
UACC-62 melanoma = system: UACC-62 melanoma
UO-31 renal = system: UO-31 renal

Fc1c(F)c(F)c2c(c1F)CSc1nc3ccccc3n1-2
TGI (786-0 renal): > 100 µM | TGI (A498 renal): > 100 µM | TGI (A549 NSCLC): > 100 µM | TGI (ACHN renal): > 100 µM | TGI (CAKI-1 renal): > 100 µM | TGI (CCRF-CEM leukemia): > 100 µM | TGI (COLO 205 colon): > 100 µM | TGI (DU-145 prostate): > 100 µM | TGI (EKVX NSCLC): > 100 µM | TGI (HCC-2998 colon): > 100 µM | TGI (HCT-116 colon): > 100 µM | TGI (HCT-15 colon): > 100 µM | TGI (HL-60(TB) leukemia): > 100 µM | TGI (HOP-62 NSCLC): > 100 µM | TGI (HOP-92 NSCLC): > 100 µM | TGI (HS 578T breast): > 100 µM | TGI (HT29 colon): > 100 µM | TGI (IGROV1 ovarian): > 100 µM | TGI (K-562 leukemia): > 100 µM | TGI (KM12 colon): > 100 µM | TGI (LOX IMVI melanoma): > 100 µM | TGI (M14 melanoma): > 100 µM | TGI (MALME-3M melanoma): > 100 µM | TGI (MCF7 breast): > 100 µM | TGI (MDA-MB-231 breast): > 100 µM | TGI (MDA-MB-435): > 100 µM | TGI (MOLT-4 leukemia): > 100 µM | TGI (NCI-H226 lung): > 100 µM | TGI (NCI-H23 lung): > 100 µM | TGI (NCI-H460 lung): > 100 µM | TGI (NCI-H522 lung): > 100 µM | TGI (NCI/ADR-RES ovarian): > 100 µM | TGI (OVCAR-3 ovarian): > 100 µM | TGI (OVCAR-4 ovarian): > 100 µM | TGI (OVCAR-5 ovarian): > 100 µM | TGI (OVCAR-8 ovarian): > 100 µM | TGI (PC-3 prostate): > 100 µM | TGI (RPMI-8226 leukemia): > 100 µM | TGI (RXF 393 renal): > 100 µM | TGI (SF-268 CNS): > 100 µM | TGI (SF-295 CNS): > 100 µM | TGI (SF-539 CNS): > 100 µM | TGI (SK-MEL-2 melanoma): > 100 µM | TGI (SK-MEL-28 melanoma): > 100 µM | TGI (SK-MEL-5 melanoma): > 100 µM | TGI (SK-OV-3 ovarian): > 100 µM | TGI (SN12C renal): > 100 µM | TGI (SNB-19 CNS): > 100 µM | TGI (SNB-75 CNS): > 100 µM | TGI (SR leukemia): > 100 µM | TGI (SW-620 colon): > 100 µM | TGI (T-47D breast): > 100 µM | TGI (TK-10 renal): > 100 µM | TGI (U251 CNS): > 100 µM | TGI (UACC-257 melanoma): > 100 µM | TGI (UACC-62 melanoma): > 100 µM

O=C(Nc1ccc(-n2cc(-c3ccncc3)c(-c3ccc(O)c(Cl)c3)n2)cc1)c1cc(C(F)(F)F)cc(C(F)(F)F)c1
GI50 (A498 renal): 14.1 µM | TGI (A498 renal): > 25 µM | GI50 (A549 NSCLC): 9.11 µM | TGI (A549 NSCLC): > 25 µM | GI50 (ACHN renal): 8.41 µM | TGI (ACHN renal): > 25 µM | GI50 (CAKI-1 renal): 6.57 µM | TGI (CAKI-1 renal): > 25 µM | GI50 (CCRF-CEM leukemia): 4.09 µM | TGI (CCRF-CEM leukemia): 21.8 µM | GI50 (COLO 205 colon): 10.8 µM | TGI (COLO 205 colon): > 25 µM | GI50 (DU-145 prostate): 9.69 µM | TGI (DU-145 prostate): > 25 µM | GI50 (EKVX NSCLC): 11.1 µM | TGI (EKVX NSCLC): > 25 µM | GI50 (HCC-2998 colon): 9.89 µM | TGI (HCC-2998 colon): > 25 µM | GI50 (HCT-116 colon): 6.24 µM | TGI (HCT-116 colon): > 25 µM | GI50 (HCT-15 colon): 4.84 µM | TGI (HCT-15 colon): 15.5 µM | GI50 (HL-60(TB) leukemia): 5.8 µM | TGI (HL-60(TB) leukemia): 18 µM | GI50 (HOP-62 NSCLC): 12.5 µM | TGI (HOP-62 NSCLC): > 25 µM | GI50 (HOP-92 NSCLC): 1.04 µM | TGI (HOP-92 NSCLC): 13.7 µM | GI50 (HS 578T breast): 6.1 µM | TGI (HS 578T breast): > 25 µM | GI50 (HT29 colon): 5.01 µM | TGI (HT29 colon): 13.4 µM | GI50 (IGROV1 ovarian): 12.7 µM | TGI (IGROV1 ovarian): > 25 µM | GI50 (K-562 leukemia): 4.75 µM | TGI (K-562 leukemia): > 25 µM | GI50 (KM12 colon): 7.85 µM | TGI (KM12 colon): > 25 µM | GI50 (LOX IMVI melanoma): 5.59 µM | TGI (LOX IMVI melanoma): > 25 µM | GI50 (M14 melanoma): 3.58 µM | TGI (M14 melanoma): 9.58 µM | GI50 (MALME-3M melanoma): 4.66 µM | TGI (MALME-3M melanoma): 16.7 µM | GI50 (MCF7 breast): 8.46 µM | TGI (MCF7 breast): > 25 µM | GI50 (MDA-MB-231 breast): 2.92 µM | TGI (MDA-MB-231 breast): 6.8 µM | GI50 (MDA-MB-435): 5.79 µM | TGI (MDA-MB-435): > 25 µM | GI50 (MOLT-4 leukemia): 3.89 µM | TGI (MOLT-4 leukemia): 15.5 µM | GI50 (NCI-H226 lung): > 25 µM | TGI (NCI-H226 lung): > 25 µM | GI50 (NCI-H23 lung): 9.8 µM | TGI (NCI-H23 lung): > 25 µM | GI50 (NCI-H460 lung): 7.23 µM | TGI (NCI-H460 lung): > 25 µM | GI50 (NCI-H522 lung): 4.6 µM | TGI (NCI-H522 lung): > 25 µM | GI50 (NCI/ADR-RES ovarian): 11.1 µM | TGI (NCI/ADR-RES ovarian): > 25 µM | GI50 (OVCAR-3 ovarian): 7.42 µM | TGI (OVCAR-3 ovarian): > 25 µM | GI50 (OVCAR-4 ovarian): 8.12 µM | TGI (OVCAR-4 ovarian): > 25 µM | GI50 (OVCAR-5 ovarian): 9.18 µM | TGI (OVCAR-5 ovarian): > 25 µM | GI50 (OVCAR-8 ovarian): 11.8 µM | TGI (OVCAR-8 ovarian): > 25 µM | GI50 (PC-3 prostate): 5.02 µM | TGI (PC-3 prostate): > 25 µM | GI50 (RPMI-8226 leukemia): 2.34 µM | TGI (RPMI-8226 leukemia): 13.5 µM | GI50 (RXF 393 renal): 3.1 µM | TGI (RXF 393 renal): 6.58 µM | GI50 (SF-268 CNS): 9.33 µM | TGI (SF-268 CNS): > 25 µM | GI50 (SF-295 CNS): 4.71 µM | TGI (SF-295 CNS): 15 µM | GI50 (SF-539 CNS): 3.57 µM | TGI (SF-539 CNS): 12.9 µM | GI50 (SK-MEL-2 melanoma): 5.08 µM | TGI (SK-MEL-2 melanoma): 12.7 µM | GI50 (SK-MEL-28 melanoma): 6.07 µM | TGI (SK-MEL-28 melanoma): 23.3 µM | GI50 (SK-MEL-5 melanoma): 5.68 µM | TGI (SK-MEL-5 melanoma): 19 µM | GI50 (SN12C renal): 8.93 µM | TGI (SN12C renal): > 25 µM | GI50 (SNB-19 CNS): 11.9 µM | TGI (SNB-19 CNS): > 25 µM | GI50 (SNB-75 CNS): 3.73 µM | TGI (SNB-75 CNS): > 25 µM | GI50 (SR leukemia): 8.79 µM | TGI (SR leukemia): > 25 µM | GI50 (SW-620 colon): 11.1 µM | TGI (SW-620 colon): > 25 µM | GI50 (T-47D breast): 12.2 µM | TGI (T-47D breast): > 25 µM | GI50 (TK-10 renal): 5.87 µM | TGI (TK-10 renal): > 25 µM | GI50 (U251 CNS): 4.55 µM | TGI (U251 CNS): > 25 µM | GI50 (UACC-257 melanoma): 14.7 µM | TGI (UACC-257 melanoma): > 25 µM | GI50 (UACC-62 melanoma): 5.35 µM | TGI (UACC-62 melanoma): 12.9 µM | GI50 (UO-31 renal): 5.3 µM | TGI (UO-31 renal): > 25 µM
